Here are results for 14 compounds from patent US11339156B2, “3-(1H-pyrazol-4-yl)pyridine allosteric modulators of the M4 muscarinic acetylcholine receptor” (Merck Sharp & Dohme Corp., priority 2017, dated 2022).

The structures appear in SMILES notation.

The target in the first assay is T1, human M4 muscarinic acetylcholine receptor (Homo sapiens, UniProt P08173).
T1 construct: expressed in transfected cells
T1 sequence (P08173 1-479): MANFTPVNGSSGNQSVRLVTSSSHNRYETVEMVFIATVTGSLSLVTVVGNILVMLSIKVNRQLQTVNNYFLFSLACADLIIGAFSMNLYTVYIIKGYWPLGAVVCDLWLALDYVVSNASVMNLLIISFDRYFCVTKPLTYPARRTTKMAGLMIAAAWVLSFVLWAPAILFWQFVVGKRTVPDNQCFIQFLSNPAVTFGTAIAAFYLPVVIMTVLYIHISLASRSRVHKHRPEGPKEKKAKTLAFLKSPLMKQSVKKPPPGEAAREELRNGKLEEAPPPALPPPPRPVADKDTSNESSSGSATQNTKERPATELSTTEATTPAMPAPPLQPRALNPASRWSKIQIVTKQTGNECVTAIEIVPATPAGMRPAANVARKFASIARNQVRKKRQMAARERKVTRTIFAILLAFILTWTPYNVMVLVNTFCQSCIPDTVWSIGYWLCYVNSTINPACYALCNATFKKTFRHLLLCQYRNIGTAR
Put plainly: human FLIPR-based M4 PAM assay (CHO-K1 cells with human M4 receptor and Gαqi5, calcium dye fluorescence). Format: cell-based. As to conditions: inflection point of 4 parameter logistic fit; acetylcholine added at 20% of maximum response; read-out: M4PAM IP. Summed up:
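The FLIPR read recorded 4 min after compound was added across a concentration range, then 3.5 min after acetylcholine giving 20% of its maximal response, with an occasional extra EC70 addition. Cells were dye-loaded for about 1 h at 37 °C. Potency is the curve inflection point from a four-parameter logistic fit.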
For the compound `Cc1ccc(-c2cnn(CC34CCC(CC3)CC4)c2)c(-c2ccc3c(c2)C(=O)N(CC2CC2)C3)n1` [Example 12, 6-{3-[1-(bicyclo[2.2.2]oct-1-ylmethyl)-1H-pyrazol-4-yl]-6-methylpyridin-2-yl}-2-(cyclopropylmethyl)-2,3-dihydro-1H-isoindol-1-one], the EC50 was 24.5 nM. As to `Cc1ccc(-c2cnn(CCC(C)C)c2)c(-c2ccc3c(c2)CNC3)n1` [Example 75, 5-{6-methyl-3-[1-(3-methylbutyl)-1H-pyrazol-4-yl]pyridin-2-yl}-2,3-dihydro-1H-isoindole], the EC50 stood at 106 nM. With `Cc1cn2ccc(-c3nc(C#N)ccc3-c3cnn(CCC(F)(F)F)c3)cc2n1` [Example 40, 6-(2-methylimidazo[1,2-a]pyridin-7-yl)-5-[1-(3,3,3-trifluoropropyl)-1H-pyrazol-4-yl]pyridine-2-carbonitrile], the EC50 was 141 nM.

As to `Cc1nc2cc(-c3nc(C#N)ccc3-c3cnn(CC4(C(F)(F)F)CC4)c3)ccc2o1` [Example 55, 6-(2-methyl-1,3-benzoxazol-5-yl)-5-(1-{[1-(trifluoromethyl)cyclo-propyl]methyl}-1H-pyrazol-4-yl)pyridine-2-carbonitrile], the EC50 was determined as 176 nM. On to `Cc1ccc(-c2cnn(CC3(C)CCCCC3)c2)c(-c2ccc3cn[nH]c3c2)n1` [Example 3, 6-(6-methyl-3-{1-[(1-methylcyclohexyl)methyl]-1H-pyrazol-4-yl}pyridin-2-yl)-1H-indazole], for which the EC50 is 66.6 nM. On to `Cc1cn2ccc(-c3ncccc3-c3cnn(CC(C)(C)C)c3)cc2n1` [Example 87, 7-{3-[1-(2,2-dimethylpropyl)-1H-pyrazol-4-yl]pyridin-2-yl}-2-methylimidazo[1,2-a]pyridine], for which the EC50 turned out to be 121 nM. As to `Cc1ccc(-c2cnn(CC(C)(C)C(F)(F)F)c2)c(-c2ccn3ccnc3c2)n1` [Example 26], the EC50 was determined as 25.5 nM.

As for `Cc1cn2ccc(-c3nc(C#N)ccc3-c3cnn(CC(C)(C)F)c3)cc2n1` [Example 122, 5-(1-(2-fluoro-2-methylpropyl)-1H-pyrazol-4-yl)-6-(2-methylimidazo[1,2-a]pyridin-7-yl)picolinonitrile], the EC50 was 78.1 nM. Consider `CC(C)(Cn1cc(-c2ccc(C(N)=O)nc2-c2ccn3ccnc3c2)cn1)C(F)(F)F` [Example 132, 6-(imidazo[1,2-a]pyridin-7-yl)-5-(1-(3,3,3-trifluoro-2,2-dimethylpropyl)-1H-pyrazol-4-yl)picolinamide], for which the EC50 came out at 249 nM. On the same count and under the same terms, for `CC(C)(C)Cn1cc(-c2ccc(C#N)nc2-c2ccn3ccnc3c2)cn1` [Example 48, 5-[1-(2,2-dimethylpropyl)-1H-pyrazol-4-yl]-6-imidazo[1,2-a]pyridin-7-ylpyridine-2-carbonitrile] the value was 29.7 nM; for `Cc1nc2cc(-c3nc(C#N)ccc3-c3cnn(CC(C)(C)C)c3)ccn2n1` [Example 63, 6-(2-methyl-[1,2,4]triazolo[1,5-a]pyridin-7-yl)-5-(1-neopentyl-1H-pyrazol-4-yl)picolinonitrile], 46.8 nM; for `Cn1nc2ccc(-c3nc(C#N)ccc3-c3cnn(CC(C)(C)C)c3)cc2n1` [Example 69, 5-[1-(2,2-dimethylpropyl)-1H-pyrazol-4-yl]-6-(2-methyl-2H-benzotriazol-5-yl)pyridine-2-carbonitrile], 243 nM. Regarding `Cc1cn2ccc(-c3nc(C#N)ccc3-c3cnn(CC(C)(F)F)c3)cc2n1` [Example 20, 5-[1-(2,2-difluoropropyl)-1H-pyrazol-4-yl]-6-(2-methylimidazo[1,2-a]pyridin-7-yl)pyridine-2-carbonitrile], the EC50 worked out at 144 nM.

The same assay, now with this note: read-out: HuM4PAM.
Turning to `CC(C)(F)Cn1cc(-c2ccc(C#N)nc2-c2ccn3ccnc3c2)cn1` [Example 121, 5-(1-(2-fluoro-2-methylpropyl)-1H-pyrazol-4-yl)-6-(imidazo[1,2-a]pyridin-7-yl)picolinonitrile], the EC50 amounted to 107 nM.
